Test systems include OVCAR-3 ovarian; SNB-75 CNS; TK-10 renal; HOP-62 NSCLC; OVCAR-5 ovarian; SNB-19 CNS; LOX IMVI melanoma; NCI-H460 lung; RPMI-8226 leukemia; NCI-H226 lung.
Common to all, as to assay: NCI anticancer screen, dose series, 48 h

Molecules are shown by their SMILES.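 Dose response: 5 concentrations. Exposure: 48 h. Format: 96-well plates. Endpoint: linear interpolation; highest concentration if not reached. Here, GI50 denotes the concentration required for 50% inhibition of growth. TGI is the concentration that stops growth completely.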

Take `OB(O)c1ccccc1C#Cc1ccccc1B(O)O`: the TGI with OVCAR-3 ovarian was 68.6 µM; in the assay with SNB-75 CNS, more than 100 µM; with TK-10 renal, 53.2 µM; in the assay with HOP-62 NSCLC, 83.9 µM; with OVCAR-5 ovarian, 81.4 µM; in the assay with SNB-19 CNS, 67.9 µM. Moreover, the TGI with LOX IMVI melanoma turned out to be 51.1 µM; in the assay on NCI-H460 lung, 48.2 µM; in the assay on RPMI-8226 leukemia, 68.8 µM.

Regarding `CNC(=O)c1cc(Oc2cccc3nc(NC(=O)Nc4cc(C(F)(F)F)cc(C(F)(F)F)c4)ccc23)ccn1`, the GI50 was 4.07 µM in the assay with OVCAR-3 ovarian; 2.38 µM in the assay with SNB-75 CNS; 3.22 µM with TK-10 renal; 3.37 µM with HOP-62 NSCLC; 13.3 µM in the assay on OVCAR-5 ovarian; 4.21 µM in the assay on NCI-H226 lung. Also, the GI50 in the assay on SNB-19 CNS is 5.31 µM; in the assay on LOX IMVI melanoma, 3.26 µM; in the assay on NCI-H460 lung, 4.16 µM. Moreover, the TGI in the assay on OVCAR-3 ovarian is 21.3 µM; with SNB-75 CNS, 14.9 µM; with TK-10 renal, 11.5 µM; with HOP-62 NSCLC, 10.4 µM; with OVCAR-5 ovarian it was more than 100 µM; in the assay with NCI-H226 lung, 39.8 µM. Further, the TGI with SNB-19 CNS was 38 µM; in the assay with LOX IMVI melanoma, 29.5 µM; with NCI-H460 lung, 36.6 µM.

`CCCOc1cc2ccccc2cc1C(=O)Nc1nc(NC)c2c(ccc3nccc32)[nH]1`: the GI50 with OVCAR-3 ovarian is 0.248 µM; in the assay with TK-10 renal, 1.36 µM; in the assay with HOP-62 NSCLC it was 0.779 µM; in the assay with OVCAR-5 ovarian, 1.4 µM; in the assay with NCI-H226 lung, 1.65 µM; in the assay on SNB-19 CNS, 0.701 µM. In addition, the GI50 with LOX IMVI melanoma was 0.42 µM; in the assay on NCI-H460 lung it was 0.348 µM; in the assay with RPMI-8226 leukemia, 0.402 µM. The TGI in the assay with OVCAR-3 ovarian turned out to be 1.13 µM; in the assay with TK-10 renal, 2.68 µM; in the assay on HOP-62 NSCLC, 2.28 µM; in the assay with OVCAR-5 ovarian, 3 µM; with NCI-H226 lung, 3.8 µM; with SNB-19 CNS it was 2.23 µM. Moreover, the TGI was determined as 1.76 µM with LOX IMVI melanoma, 1.13 µM with NCI-H460 lung and 1.83 µM in the assay on RPMI-8226 leukemia.

As for `NCCCOc1cc2ccccc2cc1C(=O)Nc1ccc(Cl)cc1OC(=O)c1cc2ccccc2cc1OCCCN`, the GI50 in the assay with OVCAR-3 ovarian was 0.612 µM; in the assay on SNB-75 CNS, 0.119 µM; in the assay on TK-10 renal, 0.545 µM; with HOP-62 NSCLC, 0.208 µM; with OVCAR-5 ovarian, 1 µM; in the assay on SNB-19 CNS, 0.766 µM. In addition, the GI50 was 0.162 µM in the assay on LOX IMVI melanoma and 0.195 µM in the assay with NCI-H460 lung. The TGI in the assay with OVCAR-3 ovarian was 1.43 µM; with SNB-75 CNS, 0.859 µM; with TK-10 renal, 1.07 µM; in the assay on HOP-62 NSCLC, 0.515 µM; in the assay with OVCAR-5 ovarian, 2.47 µM; in the assay on SNB-19 CNS it was 2.19 µM. The TGI in the assay on LOX IMVI melanoma worked out at 0.316 µM; in the assay on NCI-H460 lung it was 0.345 µM.

With `O=C1CC(c2c(-c3ccccc3)[nH]c3ccccc23)C(=O)N1c1ccccc1` (stereo not drawn), the TGI with OVCAR-3 ovarian was more than 100 µM; in the assay with SNB-75 CNS, more than 100 µM; in the assay on TK-10 renal, more than 100 µM; in the assay with HOP-62 NSCLC it was 94 µM; in the assay with OVCAR-5 ovarian, more than 100 µM; in the assay with NCI-H226 lung it was more than 100 µM. The TGI in the assay on NCI-H460 lung and with RPMI-8226 leukemia was more than 100 µM each time.

For `COC(=O)c1cccc2c3ccccc3c3ccccc3c12`, the TGI in the assay with OVCAR-3 ovarian was 56 µM; in the assay on SNB-75 CNS it was more than 100 µM; in the assay on TK-10 renal, more than 100 µM; with HOP-62 NSCLC, more than 100 µM; with OVCAR-5 ovarian, more than 100 µM; in the assay with NCI-H226 lung it was more than 100 µM. Also, the values for the TGI with SNB-19 CNS and in the assay on LOX IMVI melanoma were more than 100 µM and 81 µM, respectively.

With `C=C1c2ccccc2C(=O)c2c1c1c(C(=O)OC)c(OC(=O)OCc3ccc([N+](=O)[O-])cc3)ccc1n2Cc1ccccc1`, the GI50 is 2.39 µM with OVCAR-3 ovarian; 21.1 µM with TK-10 renal; 13.3 µM in the assay on HOP-62 NSCLC; 17.7 µM in the assay on OVCAR-5 ovarian; 19.6 µM with NCI-H226 lung; 20.3 µM with SNB-19 CNS. For the same molecule, the GI50 in the assay on LOX IMVI melanoma is 35.7 µM; in the assay on NCI-H460 lung, 26.8 µM; in the assay with RPMI-8226 leukemia, 2.3 µM. The TGI with OVCAR-3 ovarian was 8.05 µM; in the assay with TK-10 renal it was more than 100 µM; in the assay on HOP-62 NSCLC it was 29.3 µM; with OVCAR-5 ovarian it was 49.5 µM; in the assay on NCI-H226 lung it was 44.1 µM; with SNB-19 CNS, 80.9 µM. The results for the TGI in the assay with LOX IMVI melanoma, in the assay with NCI-H460 lung and with RPMI-8226 leukemia were more than 100 µM, 88.6 µM and 13.1 µM, respectively.

For the molecule `O=C1/C(=C/c2ccc3c(c2)OCCO3)CCC/C1=C\c1ccc2c(c1)OCCO2`, the TGI was 44.6 µM in the assay with OVCAR-3 ovarian; 66.9 µM in the assay on SNB-75 CNS; more than 100 µM with TK-10 renal; 92.1 µM with HOP-62 NSCLC; more than 100 µM with OVCAR-5 ovarian; more than 100 µM with SNB-19 CNS. The TGI is more than 100 µM with LOX IMVI melanoma, 65.6 µM in the assay with NCI-H460 lung and 45.8 µM in the assay with RPMI-8226 leukemia.

Turning to `CC(C)(C)c1cc(C(=O)Nc2ccc(C(=O)NCCN)cc2)cc(C(C)(C)C)c1`, the GI50 in the assay with OVCAR-3 ovarian is 2.18 µM; in the assay with SNB-75 CNS, 4.02 µM; in the assay with TK-10 renal, 2.99 µM; with HOP-62 NSCLC, 4.5 µM; in the assay on OVCAR-5 ovarian, 6.07 µM; in the assay on NCI-H226 lung, 6.43 µM. In addition, the GI50 was 3.65 µM in the assay on SNB-19 CNS, 1.65 µM with LOX IMVI melanoma and 1.93 µM in the assay with NCI-H460 lung. In addition, the TGI is 4.97 µM with OVCAR-3 ovarian; 24.5 µM with SNB-75 CNS; 9.64 µM with TK-10 renal; 21.8 µM with HOP-62 NSCLC; 22.8 µM in the assay on OVCAR-5 ovarian; 28.1 µM in the assay on NCI-H226 lung. Also, the TGI stood at 16.6 µM with SNB-19 CNS, 3.16 µM with LOX IMVI melanoma and 3.73 µM in the assay on NCI-H460 lung.

With `N#CC1=C(N)NC(=S)NC1c1ccc(-c2ccc(-c3nc4ccccc4o3)cc2)s1` (stereo not drawn), the GI50 is 10.7 µM in the assay on OVCAR-3 ovarian; 18.6 µM with TK-10 renal; 9.33 µM in the assay with HOP-62 NSCLC; 16 µM in the assay with OVCAR-5 ovarian; 13.3 µM in the assay with SNB-19 CNS; 9.58 µM in the assay with LOX IMVI melanoma. In addition, the GI50 is 7.58 µM in the assay with NCI-H460 lung and 16 µM in the assay on RPMI-8226 leukemia. Also, the TGI is 37.2 µM with OVCAR-3 ovarian; more than 50 µM in the assay with TK-10 renal; 20.1 µM in the assay with HOP-62 NSCLC; 34.6 µM in the assay on OVCAR-5 ovarian; more than 50 µM in the assay with SNB-19 CNS; 21.4 µM with LOX IMVI melanoma. Besides, the TGI with NCI-H460 lung was 15.9 µM; in the assay on RPMI-8226 leukemia, more than 50 µM.

For the origin of these results see PubChem BioAssay (NCI).
